From ChEMBL document CHEMBL1201862, “PubChem BioAssay data set” (2004)
Active and inactive are the calls of the source.

How the values were obtained:
[1] = target: T1, Delta-type opioid receptor (Homo sapiens, UniProt P41143); experiment: HTS Image-Based Screen for Antagonists of the DOR Receptor. [Related pubchem assays (depositor defined):AID1777, AID1785, AID1786, AID2133]; format: functional
[2] = inhibitors of firefly luciferase expression or activity, dose response, H4 neuroglioma cells, luminescence (AID 1990); format: functional, cell-based
HEK293 [3] = experiment: NOD1 signaling inhibitors, primary screen, cell-based, luminescence, uHTS (AID 1578); format: functional; details: Homo sapiens
Mu-type opioid receptor = Mu-type opioid receptor (Homo sapiens, UniProt P35372); experiment: HTS Image-Based Screen for Agonists of the MOR Receptor. [Related pubchem assays (depositor defined):AID1777, AID1785, AID1786, AID2133]; format: functional;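 further: imaging of beta-arrestin GFP recruitment into spots after receptor activation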
[4] = target: T1, Delta-type opioid receptor; experiment: HTS Image-Based Screen for Agonists of the DOR Receptor. [Related pubchem assays (depositor defined):AID1777, AID1786, AID2133]; format: functional
BJ [5] = experiment: cytotoxicity toward BJ-TERT fibroblasts, dose response, cell-based, RAS-independent, luminescence (AID 1933); format: functional; details: Homo sapiens
HEK293 [6] = experiment: cells; format: functional, cell-based; details: Homo sapiens
[7] = Luminescence Cell-Based Dose Response HTS to Identify Inhibitors of 5'UTR Stem-Loop Driven Prion Protein mRNA Translation in H4 Neuroglioblastoma Cells. [Related pubchem assays: 1827 (Project Summary), 1813 (Primary HTS)]; format: functional
[8] = inhibitors of SNCA 5'UTR-driven reporter translation, confirmation, H4 neuroglioma cells, luminescence (AID 1988); format: functional, cell-based
BJ [9] = experiment: cells; format: functional, cell-based; details: Homo sapiens
HEK293 [10] = experiment: cells; format: functional, cell-based; details: Homo sapiens; remark: listed apart in the source
HEK293 [11] = experiment: NOD2 signaling inhibitors in MDP-stimulated cells, cell-based, uHTS, luminescence (AID 2001); format: functional; details: Homo sapiens
[12] = target: T2, Kappa-type opioid receptor (Homo sapiens, UniProt P41145); format: functional
Beta-galactosidase = Beta-galactosidase (Escherichia coli, UniProt Q8VNN2); format: functional
BJ [13] = experiment: cytotoxicity toward BJ-TERT-LT-ST fibroblasts, dose response, cell-based, RAS-independent, luminescence (AID 1935); format: functional; details: Homo sapiens;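 further: BJ fibroblasts immortalized with TERT plus LT and ST oncogenes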
[14] = target: T2, Kappa-type opioid receptor; format: functional; remark: listed apart in the source
[15] = cytotoxicity toward DRD oncogenic fibroblasts, dose response, cell-based, non-viral oncogenic, luminescence (AID 1934); format: functional; details: Homo sapiens
[16] = target: T3, Microphthalmia-associated transcription factor (Homo sapiens, UniProt O75030); experiment: TRPM1 promoter luciferase signal decrease, dose response, MITF inhibitor project, cell-based, SK-MEL-5, cherry-picked, set 3 (AID 493073); format: functional
T3 sequence (O75030 whole entry): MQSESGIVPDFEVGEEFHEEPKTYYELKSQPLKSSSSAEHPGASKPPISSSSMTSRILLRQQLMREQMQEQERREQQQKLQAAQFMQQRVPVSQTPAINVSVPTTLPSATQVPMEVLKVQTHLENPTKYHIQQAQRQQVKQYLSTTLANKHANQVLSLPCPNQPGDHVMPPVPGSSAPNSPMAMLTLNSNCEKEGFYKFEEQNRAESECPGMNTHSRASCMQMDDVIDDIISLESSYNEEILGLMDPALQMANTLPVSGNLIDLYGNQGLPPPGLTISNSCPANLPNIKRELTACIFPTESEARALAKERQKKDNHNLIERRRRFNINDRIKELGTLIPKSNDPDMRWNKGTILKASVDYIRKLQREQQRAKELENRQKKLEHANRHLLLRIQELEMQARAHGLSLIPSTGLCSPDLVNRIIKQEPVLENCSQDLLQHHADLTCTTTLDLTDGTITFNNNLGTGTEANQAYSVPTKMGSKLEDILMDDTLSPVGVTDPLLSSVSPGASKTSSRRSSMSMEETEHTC

[17] = Shn3 3'UTR reporter inhibitors, dose response, cell-based, Clone20 osteoblasts, firefly luciferase, cherry-picked (AID 624132); format: functional;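 further: firefly luciferase luminescence from reporter carrying the Shn3 3'UTR in osteoblasts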
[18] = HepG2 cell cytotoxicity, dose response, cytotoxicity control for Shn3 inhibitor project, CellTiter-Glo, cherry-picked (AID 624134); format: functional, cell-based
[19] = control 3'UTR Renilla luciferase suppression, dose response, counter-screen for Shn3 inhibitor project, cell-based, Clone20-Shn3RL, cherry-picked (AID 624133); format: functional
[20] = Fluorescence-based cell-based high throughput dose response assay for inhibitors of the interaction of nucleotide-binding oligomerization domain containing 2 (NOD2) and the receptor-interacting serine-threonine kinase 2 (RIPK2).; format: functional; details: Homo sapiens
Beta Lactamase = Beta Lactamase (Pseudomonas aeruginosa, UniProt Q932Y6); experiment: beta-lactamase reporter inhibitor potency, dose response, artefact control for NOD2-RIPK2 interaction inhibitor project, BLA reporter cells, FRET fluorescence (AID 651552); format: functional, cell-based
Paired box protein Pax-8 = Paired box protein Pax-8 (Homo sapiens, UniProt Q06710); experiment: inhibitors of PAX8-driven TPO luciferase reporter, dose response, RMG-I cells, cherry-pick (AID 687027); format: functional, cell-based;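 further: luciferase reporter driven by Pax8 target thyroperoxidase promoter measured by SteadyGlo luminescence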
[21] = target: DNA dC->dU-editing enzyme APOBEC-3A (Homo sapiens, UniProt P31941); experiment: APOBEC3A DNA deaminase inhibitors, dose response, biochemical (AID 504722); format: functional
[22] = target: DNA dC->dU-editing enzyme APOBEC-3G (Homo sapiens, UniProt Q9HC16); experiment: Dose Response confirmation of small molecule APOBEC3G DNA Deaminase Inhibitors via a fluorescence-based single-stranded DNA deaminase assay. [Related pubchem assays (depositor defined):AID493012, AID493028]; format: functional
[23] = target: FAD-linked sulfhydryl oxidase ALR (Homo sapiens, UniProt P55789); experiment: inhibitors of human ALR sulfhydryl oxidase, dose response, biochemical, H2O2 detection, luminescence, cherry-pick (AID 493248)
[24] = target: T4, Rac GTPase-activating protein 1 (Homo sapiens, UniProt Q9H0H5); experiment: MgcRacGAP GTPase-activating activity inhibitors, confirmation, biochemical, ADP Hunter fluorescence, primary and confirmatory (AID 624330); format: functional
T4 sequence (Q9H0H5 whole entry): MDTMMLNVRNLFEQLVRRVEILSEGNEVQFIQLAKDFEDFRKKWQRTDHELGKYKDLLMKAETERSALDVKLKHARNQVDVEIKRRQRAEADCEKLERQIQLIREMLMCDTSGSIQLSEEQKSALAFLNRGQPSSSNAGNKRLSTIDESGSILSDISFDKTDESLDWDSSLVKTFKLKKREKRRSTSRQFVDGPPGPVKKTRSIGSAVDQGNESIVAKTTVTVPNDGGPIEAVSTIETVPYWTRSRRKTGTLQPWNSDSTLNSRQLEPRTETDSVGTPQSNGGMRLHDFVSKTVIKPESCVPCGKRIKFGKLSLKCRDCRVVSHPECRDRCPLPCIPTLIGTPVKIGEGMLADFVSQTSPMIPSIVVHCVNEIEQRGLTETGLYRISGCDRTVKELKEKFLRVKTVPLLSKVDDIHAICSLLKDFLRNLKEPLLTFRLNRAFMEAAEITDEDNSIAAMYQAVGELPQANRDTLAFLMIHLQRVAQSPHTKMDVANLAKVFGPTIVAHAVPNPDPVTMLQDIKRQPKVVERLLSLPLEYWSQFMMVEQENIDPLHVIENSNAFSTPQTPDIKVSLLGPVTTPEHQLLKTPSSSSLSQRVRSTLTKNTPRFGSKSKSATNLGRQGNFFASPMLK

[25] = NIH-3T3 fibroblast cytotoxicity, dose response, cytotoxicity control, cell-based, fluorescence, Alamar Blue, secondary assay (AID 2327); format: functional;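 further: NIH-3T3 mouse fibroblasts cultured with fluconazole at 8 µg/mL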
[26] = C. albicans growth with fluconazole, confirmation, fluorescence, retest (AID 2467); format: functional, cell-based
[27] = target: Eukaryotic translation initiation factor 4E (Mus musculus, UniProt P63073); experiment: eIF4E–eIF4G protein interaction inhibitors, dose response, biochemical, TR-FRET (AID 855); format: functional;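 further: potency for disrupting eIF4E binding to eIF4GI seen as loss of FRET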
Cytochrome P450 2D6 = Cytochrome P450 2D6 (Homo sapiens, UniProt P10635);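 further: CYP2D6 member of a cytochrome P450 panel assay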
Cytochrome P450 3A4 = Cytochrome P450 3A4 (Homo sapiens, UniProt P08684);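 further: CYP3A4 tested as one member of a cytochrome P450 panel screen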
Cytochrome P450 2C9 = Cytochrome P450 2C9 (Homo sapiens, UniProt P11712)
Chain of Cytochrome P450 2C9 (P11712 whole entry): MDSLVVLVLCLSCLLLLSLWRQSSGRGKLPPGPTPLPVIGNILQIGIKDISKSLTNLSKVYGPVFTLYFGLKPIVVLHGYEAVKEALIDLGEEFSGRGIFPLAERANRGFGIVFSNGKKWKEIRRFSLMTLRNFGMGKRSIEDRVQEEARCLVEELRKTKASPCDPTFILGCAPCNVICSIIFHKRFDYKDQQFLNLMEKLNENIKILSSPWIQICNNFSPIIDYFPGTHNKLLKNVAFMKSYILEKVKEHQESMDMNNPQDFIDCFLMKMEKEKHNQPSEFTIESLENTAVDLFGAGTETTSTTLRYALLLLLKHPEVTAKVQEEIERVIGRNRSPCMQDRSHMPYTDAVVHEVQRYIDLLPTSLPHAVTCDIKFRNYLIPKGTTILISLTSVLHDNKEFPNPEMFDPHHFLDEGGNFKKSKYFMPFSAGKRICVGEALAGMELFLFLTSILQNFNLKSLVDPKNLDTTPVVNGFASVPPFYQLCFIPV

T1 sequence (P41143 whole entry): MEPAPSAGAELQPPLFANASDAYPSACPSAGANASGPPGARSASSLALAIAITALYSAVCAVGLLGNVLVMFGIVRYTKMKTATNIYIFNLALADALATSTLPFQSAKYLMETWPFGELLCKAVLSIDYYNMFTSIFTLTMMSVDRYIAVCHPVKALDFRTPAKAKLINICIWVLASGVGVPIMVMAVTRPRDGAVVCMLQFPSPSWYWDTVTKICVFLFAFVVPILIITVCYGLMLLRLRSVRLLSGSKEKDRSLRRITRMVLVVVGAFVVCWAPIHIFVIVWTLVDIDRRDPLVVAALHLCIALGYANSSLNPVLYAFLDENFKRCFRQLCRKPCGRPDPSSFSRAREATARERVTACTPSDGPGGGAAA
T2 sequence (P41145 whole entry): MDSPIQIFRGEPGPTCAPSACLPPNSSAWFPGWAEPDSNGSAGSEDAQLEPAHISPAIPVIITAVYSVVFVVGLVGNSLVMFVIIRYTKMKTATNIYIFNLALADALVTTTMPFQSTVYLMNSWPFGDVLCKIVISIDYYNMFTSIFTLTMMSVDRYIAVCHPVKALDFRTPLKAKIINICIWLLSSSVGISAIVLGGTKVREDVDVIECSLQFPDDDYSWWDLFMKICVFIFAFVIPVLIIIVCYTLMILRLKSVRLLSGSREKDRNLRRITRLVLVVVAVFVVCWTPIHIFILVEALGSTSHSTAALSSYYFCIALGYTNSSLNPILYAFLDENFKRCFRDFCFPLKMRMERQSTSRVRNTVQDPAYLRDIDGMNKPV
Chain of FAD-linked sulfhydryl oxidase ALR (P55789 whole entry): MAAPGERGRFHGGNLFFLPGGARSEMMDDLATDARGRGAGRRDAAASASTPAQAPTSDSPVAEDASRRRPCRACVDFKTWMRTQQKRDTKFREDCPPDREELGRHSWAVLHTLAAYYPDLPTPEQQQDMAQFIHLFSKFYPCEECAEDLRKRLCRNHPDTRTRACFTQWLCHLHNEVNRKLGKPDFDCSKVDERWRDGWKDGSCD
Chain of Eukaryotic translation initiation factor 4E (P63073 whole entry): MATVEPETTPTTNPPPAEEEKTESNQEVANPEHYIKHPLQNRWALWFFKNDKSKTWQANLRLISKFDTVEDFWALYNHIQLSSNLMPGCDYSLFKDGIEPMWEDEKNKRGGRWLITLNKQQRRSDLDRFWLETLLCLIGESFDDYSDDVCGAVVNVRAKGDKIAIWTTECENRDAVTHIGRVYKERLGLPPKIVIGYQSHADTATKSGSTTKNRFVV
Chain of Cytochrome P450 3A4 (P08684 whole entry): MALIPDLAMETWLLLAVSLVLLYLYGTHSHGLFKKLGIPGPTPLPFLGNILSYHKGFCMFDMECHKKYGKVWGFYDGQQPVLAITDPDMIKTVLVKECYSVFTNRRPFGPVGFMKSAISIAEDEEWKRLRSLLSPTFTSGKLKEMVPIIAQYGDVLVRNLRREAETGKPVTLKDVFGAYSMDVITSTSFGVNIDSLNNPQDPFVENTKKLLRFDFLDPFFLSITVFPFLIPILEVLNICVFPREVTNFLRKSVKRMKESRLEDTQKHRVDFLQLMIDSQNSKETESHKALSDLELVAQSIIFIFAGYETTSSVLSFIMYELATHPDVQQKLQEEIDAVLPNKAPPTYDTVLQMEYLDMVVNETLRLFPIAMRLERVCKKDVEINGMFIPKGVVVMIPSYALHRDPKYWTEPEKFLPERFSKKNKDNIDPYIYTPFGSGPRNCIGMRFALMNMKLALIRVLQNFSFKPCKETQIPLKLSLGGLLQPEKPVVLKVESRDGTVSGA
Chain of Mu-type opioid receptor (P35372 whole entry): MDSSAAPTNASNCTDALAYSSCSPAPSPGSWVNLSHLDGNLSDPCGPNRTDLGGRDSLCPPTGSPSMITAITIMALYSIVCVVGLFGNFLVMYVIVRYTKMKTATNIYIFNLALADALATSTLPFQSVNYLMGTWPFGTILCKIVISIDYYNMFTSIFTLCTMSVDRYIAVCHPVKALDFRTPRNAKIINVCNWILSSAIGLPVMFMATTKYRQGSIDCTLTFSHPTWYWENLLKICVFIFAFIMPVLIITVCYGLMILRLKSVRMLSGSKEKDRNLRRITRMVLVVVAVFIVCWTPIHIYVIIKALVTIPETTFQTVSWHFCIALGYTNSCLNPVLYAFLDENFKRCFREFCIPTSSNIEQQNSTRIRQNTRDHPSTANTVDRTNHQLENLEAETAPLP
Chain of Paired box protein Pax-8 (Q06710 whole entry): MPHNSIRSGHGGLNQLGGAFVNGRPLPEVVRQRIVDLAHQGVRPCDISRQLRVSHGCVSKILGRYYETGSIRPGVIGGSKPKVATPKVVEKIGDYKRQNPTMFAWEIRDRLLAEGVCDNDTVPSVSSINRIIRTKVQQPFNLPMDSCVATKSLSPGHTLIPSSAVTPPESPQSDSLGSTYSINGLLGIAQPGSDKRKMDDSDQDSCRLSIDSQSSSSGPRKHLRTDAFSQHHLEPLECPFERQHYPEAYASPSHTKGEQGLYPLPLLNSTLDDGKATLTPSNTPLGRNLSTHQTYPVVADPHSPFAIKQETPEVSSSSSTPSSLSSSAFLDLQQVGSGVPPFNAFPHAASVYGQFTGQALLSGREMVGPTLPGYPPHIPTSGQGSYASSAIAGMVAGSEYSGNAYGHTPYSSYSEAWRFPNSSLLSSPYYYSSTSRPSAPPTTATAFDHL
Chain of Beta Lactamase (Q932Y6 whole entry): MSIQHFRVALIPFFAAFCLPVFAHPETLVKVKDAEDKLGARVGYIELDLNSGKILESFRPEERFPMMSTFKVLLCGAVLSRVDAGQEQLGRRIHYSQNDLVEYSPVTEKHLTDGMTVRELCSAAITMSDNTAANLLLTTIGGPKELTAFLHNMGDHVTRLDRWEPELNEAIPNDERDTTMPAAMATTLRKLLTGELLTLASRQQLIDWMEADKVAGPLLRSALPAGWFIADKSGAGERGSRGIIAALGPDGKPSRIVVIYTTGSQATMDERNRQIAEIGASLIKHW
Chain of DNA dC->dU-editing enzyme APOBEC-3A (P31941 whole entry): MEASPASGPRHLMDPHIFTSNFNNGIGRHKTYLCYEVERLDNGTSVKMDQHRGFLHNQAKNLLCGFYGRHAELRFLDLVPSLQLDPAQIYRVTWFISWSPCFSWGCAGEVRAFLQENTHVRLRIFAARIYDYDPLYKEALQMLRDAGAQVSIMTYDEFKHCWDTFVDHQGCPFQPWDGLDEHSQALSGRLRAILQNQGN
Chain of DNA dC->dU-editing enzyme APOBEC-3G (Q9HC16 whole entry): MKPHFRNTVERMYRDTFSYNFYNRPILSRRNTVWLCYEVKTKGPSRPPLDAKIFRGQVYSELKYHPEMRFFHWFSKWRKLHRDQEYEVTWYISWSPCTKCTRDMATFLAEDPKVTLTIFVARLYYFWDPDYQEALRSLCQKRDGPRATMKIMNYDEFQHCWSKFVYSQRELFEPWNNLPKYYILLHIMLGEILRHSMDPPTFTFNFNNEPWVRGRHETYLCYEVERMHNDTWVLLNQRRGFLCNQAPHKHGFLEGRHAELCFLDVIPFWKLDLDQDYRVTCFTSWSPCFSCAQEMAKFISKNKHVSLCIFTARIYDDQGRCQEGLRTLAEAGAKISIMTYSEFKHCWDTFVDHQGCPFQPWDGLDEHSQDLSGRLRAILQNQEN
Chain of Cytochrome P450 2D6 (P10635 whole entry): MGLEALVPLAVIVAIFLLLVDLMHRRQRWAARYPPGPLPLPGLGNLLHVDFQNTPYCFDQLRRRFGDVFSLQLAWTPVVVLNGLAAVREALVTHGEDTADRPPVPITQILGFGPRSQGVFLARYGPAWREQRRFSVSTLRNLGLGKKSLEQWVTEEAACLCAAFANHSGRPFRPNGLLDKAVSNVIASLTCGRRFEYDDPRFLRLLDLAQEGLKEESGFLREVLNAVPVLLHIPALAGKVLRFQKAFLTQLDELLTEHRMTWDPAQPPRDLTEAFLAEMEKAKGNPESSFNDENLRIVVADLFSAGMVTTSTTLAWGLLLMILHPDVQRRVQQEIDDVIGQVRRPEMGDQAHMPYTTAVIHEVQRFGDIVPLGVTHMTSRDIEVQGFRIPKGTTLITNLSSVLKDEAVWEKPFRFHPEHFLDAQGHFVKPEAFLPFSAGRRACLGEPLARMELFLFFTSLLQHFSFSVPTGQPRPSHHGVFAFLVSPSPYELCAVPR

COCCN(CC(=O)NC1CCCCC1)C(=O)/C=C/C(=O)c1ccc(OC)cc1O
inactive: IC50 [1] > 32 µM | EC50 (HEK293 [3]) > 20 µM | EC50 (Mu-type opioid receptor) > 32 µM | EC50 [4] > 32 µM | IC50 (HEK293 [10]) > 20 µM | IC50 (HEK293 [11]) > 20 µM | EC50 (Beta-galactosidase) > 31.5 µM | IC50 (Beta Lactamase) 17.8 µM
active: EC50 [2] 8.52 µM | IC50 (HEK293 [6]) 16.6 µM | EC50 [7] 9.57 µM | IC50 [12] 7.13 µM | AC50 [16] 5.48 µM | AC50 [17] 2.58 µM | AC50 [18] 13.7 µM | AC50 [19] 9.9 µM | IC50 [20] 3.11 µM | AC50 (Paired box protein Pax-8) 5.38 µM
> 120 µM (not active): EC50 [8]
inconclusive: EC50 (BJ [5]) 2.71 µM | EC50 (BJ [9]) 9.79 µM | EC50 (BJ [13]) 1.62 µM | EC50 [15] 2.74 µM
16.1 µM: IC50 [14]

Sc1nnc(-c2ccncc2)n1/N=C/C=C/c1ccccc1
active: IC50 [22] 2.76 µM | AC50 [23] 8.12 µM | IC50 [24] 125 µM
inactive: IC50 [21] > 100 µM

CC(=O)Nc1ccc(N2CCCCC2)c(C(=O)Nc2cccc(C)c2)c1
inconclusive: AC50 (Cytochrome P450 2D6) 17.8 µM | AC50 (Cytochrome P450 3A4) 22.4 µM | AC50 (Cytochrome P450 2C9) 12.6 µM
inactive: IC50 [27] > 64 µM
active: EC50 [25] 50.5 µM
> 38 µM (not active): EC50 [26]
